Reference: patent US20250344734A1, “UNSATURATED FATTY ACIDS AND THEIR USE TO MODIFY TASTE” (Firmenich Incorporated, priority 2022, published 2025)

How the values were obtained:
Format in all cases: cell-based
Conditions in all cases: unsaturated fatty acid concentration of 200 µM, cells stimulated with known bitter agonist
[1] = molecular target: T1, T2R75 (TAS2R46) (Homo sapiens, UniProt P59540); assay: FLIPR calcium assay, block of bitter agonist response, T2R75
T1 construct: expressed in transfected cells; host or cells: cells expressing a promiscuous G protein (e.g., G16g44)
T1 sequence (P59540 1-309): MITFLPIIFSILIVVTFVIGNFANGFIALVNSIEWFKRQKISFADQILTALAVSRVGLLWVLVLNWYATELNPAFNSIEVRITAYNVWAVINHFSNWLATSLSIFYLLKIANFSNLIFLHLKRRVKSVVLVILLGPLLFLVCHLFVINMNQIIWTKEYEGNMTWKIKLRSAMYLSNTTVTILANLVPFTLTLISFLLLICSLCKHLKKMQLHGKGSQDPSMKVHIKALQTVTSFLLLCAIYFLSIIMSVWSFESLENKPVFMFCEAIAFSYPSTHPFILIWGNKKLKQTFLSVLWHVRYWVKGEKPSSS
Protocol: (§1) Cells expressing a promiscuous […] (e.g., G16g44) were transfected with vectors encoding 18 functional bitter receptor cDNAs, with one receptor per transfection. The cells were transfected directly in 384-well format high-density plates and incubated for 28 hours. Later, cells were loaded with the Ca-specific dye Fluo4-AM. After an incubation of 60 minutes, excess dye is washed off, and cells are stimulated with a known bitter agonist for each receptor and various unsaturated fatty acids. Changes in intracellular fluorescence are recorded using a FLIPR instrument. Bitter antagonists and corresponding receptors are identified based on percentage inhibition of agonist's activity on a given receptor.
(§2) The above protocol was carried out using 16 different unsaturated fatty acids. A particular T2R receptor was identified as being antagonized by a particular unsaturated fatty acid if it triggered a >25% block of agonist's cellular response at 200 μM concentration of unsaturated fatty acid. […] Table 2 indicates the sixteen (16) compounds tested by their compound number from Table 1 above. The 18 bitter taste receptors screened are the human bitter taste receptors we named. T2R01 (TAS2R01), T2R03 (TAS2R03), T2R04 (TAS2R04), T2R07 (TAS2R07), T2R08 (TAS2R08), T2R09 (TAS2R09), T2R10 (TAS2R10), T2R13 (TAS2R13), T2R14 (TAS2R14), T2R16 (TAS2R16), T2R54 (TAS2R39, T2R61 (TAS2R43), T2R63 (TA2R20), T2R64 (TAS2R31), T2R65 (TAS2R19), T2R67 (TAS2R50), T2R71 (TAS2R41), and T2R75 (TAS2R46). The corresponding IUPHAR nomenclature for each receptor is given in parenthesis. In Table 2, these receptors are identified by the last two digits. For example, T2R01 is indicated as 01. Table 2 reports the percentage block of cellular response over baseline at an unsaturated fatty acid concentration of 200 µM.

[2] = molecular target: T2, T2R04 (TAS2R04) (Homo sapiens, UniProt Q9NYW5); assay: FLIPR calcium assay, block of bitter agonist response, T2R04
T2 construct: expressed in transfected cells; host or cells: cells expressing a promiscuous G protein (e.g., G16g44)
T2 sequence (Q9NYW5 1-299): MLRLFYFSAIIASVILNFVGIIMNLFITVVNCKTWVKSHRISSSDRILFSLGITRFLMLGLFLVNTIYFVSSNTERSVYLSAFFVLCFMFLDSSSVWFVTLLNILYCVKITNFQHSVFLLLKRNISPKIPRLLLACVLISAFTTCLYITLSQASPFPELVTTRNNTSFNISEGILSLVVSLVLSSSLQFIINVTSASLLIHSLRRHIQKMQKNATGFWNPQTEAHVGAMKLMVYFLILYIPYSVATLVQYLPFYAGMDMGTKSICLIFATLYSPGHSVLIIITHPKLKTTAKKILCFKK
Protocol: as §1
(§3) The above protocol was carried out using 16 different unsaturated fatty acids. A particular T2R receptor was identified as being antagonized by a particular unsaturated fatty acid if it triggered a >25% block of agonist's cellular response at 200 μM concentration of unsaturated fatty acid. […] Table 2 indicates the sixteen (16) compounds tested by their compound number from Table 1 above. The 18 bitter taste receptors screened are the human bitter taste receptors we named. […]

[3] = molecular target: T3, T2R09 (TAS2R09) (Homo sapiens, UniProt Q9NYW1); assay: FLIPR calcium assay, block of bitter agonist response, T2R09
T3 construct: expressed in transfected cells; host or cells: cells expressing a promiscuous G protein (e.g., G16g44)
T3 sequence (Q9NYW1 1-312): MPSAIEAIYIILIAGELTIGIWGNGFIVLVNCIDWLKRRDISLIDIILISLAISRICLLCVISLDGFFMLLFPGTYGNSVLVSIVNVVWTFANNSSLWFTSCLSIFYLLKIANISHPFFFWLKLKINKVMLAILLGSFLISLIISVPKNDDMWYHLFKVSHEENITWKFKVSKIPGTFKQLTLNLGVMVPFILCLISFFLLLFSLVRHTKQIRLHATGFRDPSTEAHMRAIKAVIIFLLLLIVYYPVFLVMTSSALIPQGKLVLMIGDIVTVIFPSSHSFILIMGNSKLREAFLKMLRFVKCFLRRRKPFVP
Protocol: as §1, §3

[4] = molecular target: T4, T2R71 (TAS2R41) (Homo sapiens, UniProt P59536); assay: FLIPR calcium assay, block of bitter agonist response, T2R71
T4 construct: expressed in transfected cells; host or cells: cells expressing a promiscuous G protein (e.g., G16g44)
T4 sequence (P59536 1-307): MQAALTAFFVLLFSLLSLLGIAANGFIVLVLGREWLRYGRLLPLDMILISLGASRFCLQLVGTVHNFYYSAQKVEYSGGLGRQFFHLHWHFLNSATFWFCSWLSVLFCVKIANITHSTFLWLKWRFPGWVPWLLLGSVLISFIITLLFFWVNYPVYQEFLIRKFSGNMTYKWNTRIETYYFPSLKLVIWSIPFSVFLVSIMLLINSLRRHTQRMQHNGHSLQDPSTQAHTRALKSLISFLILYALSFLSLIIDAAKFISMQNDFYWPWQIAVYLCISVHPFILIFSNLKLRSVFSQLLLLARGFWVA
Protocol: as §1, §3

[5] = molecular target: T5, T2R61 (TAS2R43) (Homo sapiens, UniProt P59537); assay: FLIPR calcium assay, block of bitter agonist response, T2R61
T5 construct: expressed in transfected cells; host or cells: cells expressing a promiscuous G protein (e.g., G16g44)
T5 sequence (P59537 1-309): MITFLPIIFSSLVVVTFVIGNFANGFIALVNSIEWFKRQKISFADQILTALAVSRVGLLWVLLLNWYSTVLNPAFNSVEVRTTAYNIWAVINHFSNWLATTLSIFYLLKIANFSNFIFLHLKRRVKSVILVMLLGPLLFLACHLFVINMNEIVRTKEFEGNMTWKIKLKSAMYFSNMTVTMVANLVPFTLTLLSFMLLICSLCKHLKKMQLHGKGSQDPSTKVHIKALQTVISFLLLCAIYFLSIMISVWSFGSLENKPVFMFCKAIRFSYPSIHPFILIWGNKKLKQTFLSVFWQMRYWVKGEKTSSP
Protocol: as §1, §3

[6] = molecular target: T6, T2R54 (TAS2R39 (Homo sapiens, UniProt P59534)); assay: FLIPR calcium assay, block of bitter agonist response, T2R54
T6 construct: expressed in transfected cells; host or cells: cells expressing a promiscuous G protein (e.g., G16g44)
T6 sequence (P59534 1-338): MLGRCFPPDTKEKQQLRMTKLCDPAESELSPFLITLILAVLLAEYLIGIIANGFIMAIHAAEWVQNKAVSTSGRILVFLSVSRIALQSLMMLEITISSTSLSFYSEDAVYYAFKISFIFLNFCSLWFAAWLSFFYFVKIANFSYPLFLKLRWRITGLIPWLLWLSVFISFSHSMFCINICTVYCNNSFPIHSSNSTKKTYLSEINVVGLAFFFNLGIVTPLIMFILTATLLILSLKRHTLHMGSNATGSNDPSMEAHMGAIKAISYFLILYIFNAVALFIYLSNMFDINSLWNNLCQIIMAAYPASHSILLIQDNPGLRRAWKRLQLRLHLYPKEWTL
Protocol: as §1, §2

Question: How did the “percentage block of cellular response over baseline, 75” value [1] turn out when `CC(C)=CCC/C(C)=C/C(=O)O` [Compound 129] was run?
Answer: Its value is 50%.

Question: What about the “percentage block of cellular response over baseline, 04” value [2] of the same compound?
Answer: Its value is over 90%.

Question: And the “percentage block of cellular response over baseline, 09” value [3]?
Answer: Its value is 30%.

Question: And the “percentage block of cellular response over baseline, 71” value [4]?
Answer: Its value is 30%.

Question: What about the “percentage block of cellular response over baseline, 61” value [5] of the same compound?
Answer: The value was over 90%.

Question: What about the “percentage block of cellular response over baseline, 54” value [6] of the same compound?
Answer: Its value is 90%.
